Reference: patent US11484032B2, “Compositions for inhibition of insect sensing” (Vanderbilt University, priority 2011, dated 2022)

Key:
Format in all cases: cell-based
DmORco = molecular target: T1, DmORco (Drosophila melanogaster, UniProt Q9VNB5); assay: Whole-cell patch clamp, HEK cells transiently expressing DmORco; conditions: DmORco transiently transfected HEK cells
T1 construct: expressed in transfected cells; host or cells: Flp-In T-REx 293 (HEK), transient, pCI vector, GFP co-transfected as a separate marker
T1 sequence (Q9VNB5 1-486): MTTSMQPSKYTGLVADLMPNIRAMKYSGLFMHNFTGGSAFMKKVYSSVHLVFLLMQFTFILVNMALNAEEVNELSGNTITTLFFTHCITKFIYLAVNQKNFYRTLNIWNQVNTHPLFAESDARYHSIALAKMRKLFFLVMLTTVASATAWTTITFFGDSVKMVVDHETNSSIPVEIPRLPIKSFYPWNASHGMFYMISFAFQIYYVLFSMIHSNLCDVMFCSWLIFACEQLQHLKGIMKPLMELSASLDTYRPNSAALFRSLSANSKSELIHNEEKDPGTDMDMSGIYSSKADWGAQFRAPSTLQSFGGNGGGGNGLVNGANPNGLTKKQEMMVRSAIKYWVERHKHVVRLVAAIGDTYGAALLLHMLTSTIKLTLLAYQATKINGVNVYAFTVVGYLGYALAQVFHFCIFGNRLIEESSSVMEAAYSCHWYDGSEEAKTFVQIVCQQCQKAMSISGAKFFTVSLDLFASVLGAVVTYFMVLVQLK
Source text: For transient transfections, ORs were cloned into pCl (Promega) and transfected into Flp-In™ T-REx™293 cell lines (Invitrogen) with Fu GENE6 (Roche). For the creation of stable cell lines, a cell culture expression vector capable of expressing Orco in conjunction with a conventional OR, pcDNA5/FRT/TO (Invitrogen) was modified to create two individual expression cassettes each under the control of a separate CMV/Tet02 promoter and a BGH poly-adenylation signal. Cells (as above) were transfected with the modified pcDNA5 plasmid along with POG44 (a Flp recombinase expression plasmid) to facilitate site-specific recombination. Stable cell lines were selected using Hygromycin B (Invitrogen). Cells were maintained in DMEM (Invitrogen) supplemented with 10% Tetracycline-free FBS (HyClone) and 15 ng/ml Blasticidin. […] Baseline readings were taken for 20 s before automated addition of compound previously diluted in DMSO and assay buffer. […]
Currents from OR-expressing HEK293 cells were amplified with an Axopatch 200b Amplifier (Axon Instruments) and digitized through a Digidata 1322A (Axon Instruments). Electrophysiological data was recorded and analyzed using pCLAMP 10 (Axon Instruments). […]

AgORco = molecular target: T2, AgORco (Anopheles gambiae, UniProt Q7QCC7); assay: Whole-cell patch clamp, HEK293 cells stably expressing AgORco alone
T2 construct: expressed in transfected cells
T2 sequence (Q7QCC7 1-478): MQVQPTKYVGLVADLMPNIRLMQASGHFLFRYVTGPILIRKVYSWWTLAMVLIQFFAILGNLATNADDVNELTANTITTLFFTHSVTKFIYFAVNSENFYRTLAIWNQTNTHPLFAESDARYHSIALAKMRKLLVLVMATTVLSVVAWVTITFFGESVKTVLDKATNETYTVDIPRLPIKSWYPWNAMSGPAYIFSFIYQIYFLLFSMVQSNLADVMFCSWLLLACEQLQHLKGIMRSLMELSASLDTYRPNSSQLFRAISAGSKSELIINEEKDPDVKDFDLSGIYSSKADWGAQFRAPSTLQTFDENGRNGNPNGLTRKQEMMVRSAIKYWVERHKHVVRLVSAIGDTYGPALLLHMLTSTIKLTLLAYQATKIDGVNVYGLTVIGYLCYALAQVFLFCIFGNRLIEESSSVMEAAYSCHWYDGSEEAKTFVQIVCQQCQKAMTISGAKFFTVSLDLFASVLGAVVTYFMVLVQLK
Experimental: Currents from OR-expressing HEK293 cells were amplified with an Axopatch 200b Amplifier (Axon Instruments) and digitized through a Digidata 1322A (Axon Instruments). Electrophysiological data was recorded and analyzed using pCLAMP 10 (Axon Instruments). Electrodes were fabricated from quartz tubing (Sutter Instruments) and pulled to 4-6 MiΩ for whole cell recording. Electrodes were filled with internal solution (120 mM KCl, 30 mM D-glucose, 10 mM HEPES, 2 mM MgCl2, 1.1 mM EGTA, and 0.1 CaCl2) (pH 7.35, 280 mOsm). External (bath) solution contained 130 mM NaCl, 34 mM D-glucose, 10 mM HEPES, 1.5 mM CaCl2), 1.3 mM KH2PO4, and 0.5 MgSO4 (pH 7.35, 300 mOsm). Compounds were diluted in external solution and locally perfused to the recording cell using Perfusion Pencil (Automate Scientific) and controlled by a ValveLink 8.2 controller (Automate Scientific). Whole cell recordings were sampled at 10 kHz and filtered at 5 kHz. Outside-out patches were obtained using 10-15MΩ electrodes pulled from standard glass capillaries (World Precision Instruments) and fire-polished with an MF-830 micro forge (Narishige). Single channel recordings were sampled at 20 kHz. Recordings were reduced to 1 kHz and low-pass filtered at 500 Hz for display and analysis using QuB (SUNY at Buffalo).
To test the hypothesis that VUAA1 directly agonized AgORco, whole-cell patch clamp responses were examined in AgORco+AgOR10 expressing cells as well as HEK293 cells stably expressing AgORco alone. […] The VUAA1-dependent currents in AgORco+AgOR10 cells resembled those resulting from application of benzaldehyde, an orthosteric agonist of AgOR10 (FIG. 3C) (Wang, 2010; Carey, 2010). […] To investigate the specificity of VUAA1 agonism, the inventors transiently transfected HEK cells with the AgORco orthologs of Drosophila melanogaster and Heliothis virescens, DmORco and HvOR2 respectively.

AgOrco+AgOR65 = molecular target: T3, AgOrco+AgOR65 (Anopheles gambiae, UniProt Q7QCC7); assay: Ca2+ imaging, HEK cells expressing AgOrco+AgOR65; conditions: heteromeric OR channels AgOrco+AgOR65; read-out: EC50
T3 construct: expressed in transfected cells
T3 sequence (Q7QCC7 1-478): T2 sequence (Q7QCC7 1-478)
Source text: For transient transfections, ORs were cloned into pCl (Promega) and transfected into Flp-In™ T-REx™293 cell lines (Invitrogen) with Fu GENE6 (Roche). For the creation of stable cell lines, a cell culture expression vector capable of expressing Orco in conjunction with a conventional OR, pcDNA5/FRT/TO (Invitrogen) was modified to create two individual expression cassettes each under the control of a separate CMV/Tet02 promoter and a BGH poly-adenylation signal. Cells (as above) were transfected with the modified pcDNA5 plasmid along with POG44 (a Flp recombinase expression plasmid) to facilitate site-specific recombination. Stable cell lines were selected using Hygromycin B (Invitrogen). Cells were maintained in DMEM (Invitrogen) supplemented with 10% Tetracycline-free FBS (HyClone) and 15 ng/ml Blasticidin. For fluorometric Ca2+ measurements, stable lines expressing ORs of interest were seeded at 20,000 cells/well in black wall, poly-lysine coated 384-well cell culture plates (Greiner) and treated with […] tetracycline (Sigma) overnight to induce OR expression. Cells were dye-loaded with 1.8 uM Fluo-4 AM (Molecular Probes), 2.5 mM Probenecid (Molecular Probes) in assay buffer (20 mM HEPES, IX HBSS) for 45 minutes at 37° C. in 5% CO2 prior to each assay. Ca^2+ mobilization was assayed in an FDSS6000 (Hamamatsu). Baseline readings were taken for 20 s before automated addition of compound previously diluted in DMSO and assay buffer. Ratios were described as Maximum/Minimum response and each response was normalized to the maximum responder.
For VUAA0, a single methyl from the para position of the aniline ring (compound VUAA0, FIG. 44) in the VUAA1 structure was removed. […] In VUAA0.5, unsaturation was introduced at the para position of the aniline ring (VUAA0.5, FIG. 44). […] In VUAA2, the ethyl group of the aniline ring in VUAA1 was replaced with an isopropyl group (VUAA2, FIG. 44).

With CCc1ccc(NC(=O)CSc2nnc(-c3cccnc3)n2CC)cc1 [VUAA1, 2-((4-ethyl-5-(pyridin-3-yl)-4H-1,2,4-triazol-3-yl)thio)-N-(4-ethylphenyl)acetamide] the whole-cell current response (DmORco) was “robust inward currents”, the whole-cell current response (AgORco; AgORco alone cells, holding potential −60 mV) was “concentration-dependent inward currents” and the “reversal potential of agonist-induced current” value (AgORco; AgORco alone, mean s.e.m.) was “+0.4±1.1 mV”. The “whole-cell current response at −5.0 log M” value (AgORco; −5.0 log M) was “no response” and the EC50 (AgOrco+AgOR65) was 37 µM.
